The subject of one test is CBS/CSE. Type of test: cell-based, B. anthracis, S. aureus, P. aeruginosa. Particulars: chemical inhibition of CSE (PAG) or CBS (AOAA), 18 hours culture.
For the next test, the system named is Wt E. coli cells. The test is classed as cell-based. Particulars: then H2O2 2 mM for 10 min.
The next test concerns E. coli cells. Type of test: cell-based. Particulars: pretreatment for 3 min, 2,2′-dipyridyl 0.05 mM or thiourea 15 mM, then Gm.
In another test the test system is E. faecalis ATCC29212. The test can be described thus: MIC of antibiotics with or without PAG/AOAA. The note with it: for MIC: Enterococcus faecalis. Type of test: cell-based. As to the method: Bacterial cultures were prepared at initial inoculums of ˜5×10^5 CFU/ml, and aliquots of 190 μl per well were dispensed. Ten μl of the indicated antibiotic solutions were added to each well. The starting concentration for each antibiotic solution was 2×MIC, with serial ½ dilutions. Two sets of dilutions were prepared, and 0.1 mM AOAA was added to one set. The plates were kept at 37° C. and 85% humidity for 20 hours.
(§1) E. faecalis (ATCC 29212) cultures were prepared at initial inoculums of ˜5×10^5 CFU/ml in Mueller-Hinton II Broth (cation-adjusted). Aliquots of 190 μl were dispensed to each well of a fresh set of plates, and 10 μl of an antibiotic solution (levofloxacin, meropenem, gentamicin, piperacillin, linezolid, cefepime, daptomycin, vancomycin, or chloramphemicol) were transferred to the corresponding wells in each bacterial plate (FIG. 13). For each antibiotic, the starting concentration was 2×MIC (minimum inhibitory concentration) with serial ½ dilutions. Two sets of dilutions were prepared, and to one of them 0.1 mM AOAA was added. The resulting plates were kept at 37° C. and 85% humidity for 20 hours. All nine antibiotics tested were potentiated by AOAA, with respective MICs dropped from 8-fold to 32-fold (FIG. 13).
(§2) Minimum inhibitory concentration (MIC) determination was conducted as described in Example 7, above. To assess antibiotic potentiation by AOAA and PAG, MIC was determined for nine antibiotics (levofloxacin, meropenem, gentamicin, piperacillin, linezolid, cefepime, daptomycin, vancomycin, and chloramphemicol) and four bacterial strains (E. faecium (A2373), E. faecalis ([…]), S. pneumoniae (ATCC 49619), and P. aeruginosa (PAO1)) in the presence of antibiotic alone, 1 mM PAG, 0.1 mM AOAA, or 0.5 mM PAG+0.05 mM AOAA. The smaller the MIC value, the stronger the effect of antibiotic potentiation.

A further test has as its system E. faecium A2373. The test can be described thus: MIC of antibiotics with or without PAG/AOAA. Type of test: cell-based. Particulars: for MIC: Enterococcus faecium. As to the method: as §1, §2
A further test deals with S. pneumoniae ATCC49619. The test can be described thus: MIC of antibiotics with or without PAG/AOAA. The test is classed as cell-based. Particulars: for MIC: Streptococcus pneumoniae. As to the method: as §2
In the next test the test system is P. aeruginosa PAO1. The test can be described thus: MIC of antibiotics with or without PAG/AOAA. The test is classed as cell-based. Particulars: for MIC: Pseudomonas aeruginosa. As to the method:
as §2

Test [1] concerns E. coli ΔsseA (3MST-deficient) strain. The test is classed as cell-based. The note with it: Table 1; relative values of growth inhibition (negative numbers), ΔsseA vs wt E. coli.
A further test relates to recA′::gfp E. coli. The test is classed as cell-based. Particulars: NaHS 200 μM, aspartate-treated cells.
For a further test, the system named is pBR322 plasmid DNA. The test can be described thus: Electrophoresis assay of DNA damage in vitro (Fenton reaction). The note with it: NaHS:Fe3+ 6:1, with Cys and H2O2, pH 8.
Test [2] concerns 3MST-deficient E. coli cells. The test is classed as cell-based. Particulars: diamide 25 μM, gentamicin 50 μg/ml for 5 min.
Where [3] appears, read: in the presence of 0.5 mM PAG + 0.05 mM AOAA.

Read-outs that look alike come from different tables or passages of the source. Bounds are passed on as bounds.

Regarding `C#CCC(N)C(=O)O` (racemic) [PAG, D,L-propargylglycine], in the test on CBS/CSE, the “Effect on H2S production (PbS staining)” value is given as “greatly decreased or eliminated PbS staining”.
As to `c1ccc(-c2ccccn2)nc1` [2,2′-dipyridyl], the “Protection against peroxide (in words)” value in the test on Wt E. coli cells (dipyridyl 0.5 mM pretreatment for 1 min) is given as “protected them rapidly against peroxide”. For the same molecule, in the test with E. coli cells, the “Effect on toxicity of Gm” value is on record as “substantially decreased the toxicity of Gm”.
For the molecule `NOCC(=O)O` [AOAA, amino-oxyacetate], the “Effect on H2S production (PbS staining)” value with CBS/CSE is “greatly decreased or eliminated PbS staining”.
As for `O=C(N[C@H](CO)[C@H](O)c1ccc([N+](=O)[O-])cc1)C(Cl)Cl` [Chloramphenicol], the MIC in the test with E. faecalis ATCC29212 (ATCC29212, antibiotic alone, read-out: Minimum inhibitory concentration) is 8 mg/L; in the test on E. faecium A2373 (A2373, antibiotic alone, read-out: Minimum inhibitory concentration), 8 mg/L; with S. pneumoniae ATCC49619 (ATCC49619, antibiotic alone, read-out: Minimum inhibitory concentration), 8 mg/L; in the test with P. aeruginosa PAO1 (PAO1, antibiotic alone, read-out: Minimum inhibitory concentration) it was 64 mg/L. Besides, the Minimum inhibitory concentration worked out at 0.5 mg/L in the test with E. faecalis ATCC29212 (in the presence of 0.1 mM AOAA); 8 mg/L with E. faecalis ATCC29212 (setting [3]); 8 mg/L with E. faecalis ATCC29212 (in the presence of 1 mM PAG); 2 mg/L in the test with E. faecium A2373 (in the presence of 0.1 mM AOAA); 8 mg/L with E. faecium A2373 (setting [3]); 8 mg/L in the test with E. faecium A2373 (in the presence of 1 mM PAG). In addition, the Minimum inhibitory concentration with S. pneumoniae ATCC49619 (in the presence of 0.1 mM AOAA) was 4 mg/L; in the test with S. pneumoniae ATCC49619 (setting [3]), 4 mg/L; with S. pneumoniae ATCC49619 (in the presence of 1 mM PAG) it was 4 mg/L; with P. aeruginosa PAO1 (in the presence of 0.1 mM AOAA), 64 mg/L; with P. aeruginosa PAO1 (setting [3]), 64 mg/L; in the test on P. aeruginosa PAO1 (in the presence of 1 mM PAG), 64 mg/L. Also, in test [1], the “ΔsseA inhibition of growth” value is listed as −136.
With `C[C@@H](O)[C@H]1C(=O)N2C(C(=O)O)=C(S[C@@H]3CN[C@H](C(=O)N(C)C)C3)[C@H](C)[C@H]12` [Meropenom, meropenem], the Minimum inhibitory concentration is 4 mg/L with E. faecalis ATCC29212 (antibiotic alone); 0.25 mg/L with E. faecalis ATCC29212 (in the presence of 0.1 mM AOAA); 1 mg/L in the test with E. faecalis ATCC29212 (setting [3]); 4 mg/L with E. faecalis ATCC29212 (in the presence of 1 mM PAG); more than 64 mg/L in the test on E. faecium A2373 (antibiotic alone); 6 mg/L in the test on E. faecium A2373 (in the presence of 0.1 mM AOAA). The Minimum inhibitory concentration with E. faecium A2373 (setting [3]) was more than 64 mg/L; with E. faecium A2373 (in the presence of 1 mM PAG) it was more than 64 mg/L; with S. pneumoniae ATCC49619 (antibiotic alone) it was 0.125 mg/L; with S. pneumoniae ATCC49619 (in the presence of 0.1 mM AOAA), 0.063 mg/L; in the test with S. pneumoniae ATCC49619 (setting [3]), 0.063 mg/L; in the test on S. pneumoniae ATCC49619 (in the presence of 1 mM PAG) it was 0.063 mg/L. The Minimum inhibitory concentration in the test with P. aeruginosa PAO1 (antibiotic alone) was found to be 1 mg/L; in the test on P. aeruginosa PAO1 (in the presence of 0.1 mM AOAA) it was 0.5 mg/L; with P. aeruginosa PAO1 (setting [3]), 0.5 mg/L; in the test with P. aeruginosa PAO1 (in the presence of 1 mM PAG) it was 0.5 mg/L.
As to `[Na+].[SH-]` [NaHS], in the test with Wt E. coli cells (NaHS 200 μM pretreatment for 1 min), the “Increase in resistance to peroxide” value was more than 20 times. The “Effect on hyper-induction of SOS by gentamicin” value in the test on recA′::gfp E. coli was “completely suppressed the hyper-induction of SOS by gentamicin”. For the same molecule, the “Inhibition of Fenton-mediated DNA damage” value in the test on pBR322 plasmid DNA is “completely inhibited DNA damage”.
`CCN1CCN(C(=O)N[C@@H](C(=O)N[C@@H]2C(=O)N3[C@@H]2SC(C)(C)[C@@H]3C(=O)O)c2ccccc2)C(=O)C1=O` [Piperacilin, piperacillin]: the Minimum inhibitory concentration with E. faecalis ATCC29212 (antibiotic alone) is 2 mg/L; in the test on E. faecalis ATCC29212 (in the presence of 0.1 mM AOAA) it was 0.25 mg/L; in the test with E. faecalis ATCC29212 (setting [3]), 1 mg/L; in the test on E. faecalis ATCC29212 (in the presence of 1 mM PAG) it was 2 mg/L; in the test with E. faecium A2373 (antibiotic alone) it was more than 64 mg/L; in the test with E. faecium A2373 (in the presence of 0.1 mM AOAA), 6 mg/L. The Minimum inhibitory concentration is more than 64 mg/L in the test on E. faecium A2373 (setting [3]); more than 64 mg/L with E. faecium A2373 (in the presence of 1 mM PAG); 0.5 mg/L with S. pneumoniae ATCC49619 (antibiotic alone); 0.25 mg/L with S. pneumoniae ATCC49619 (in the presence of 0.1 mM AOAA); 0.5 mg/L in the test with S. pneumoniae ATCC49619 (setting [3]); 0.5 mg/L with S. pneumoniae ATCC49619 (in the presence of 1 mM PAG). The Minimum inhibitory concentration with P. aeruginosa PAO1 (antibiotic alone), in the test with P. aeruginosa PAO1 (in the presence of 0.1 mM AOAA), with P. aeruginosa PAO1 (setting [3]) and in the test with P. aeruginosa PAO1 (in the presence of 1 mM PAG) was 4 mg/L in each case.
Take `CN[C@H](CC(C)C)C(=O)N[C@H]1C(=O)N[C@@H](CC(N)=O)C(=O)N[C@H]2C(=O)N[C@H]3C(=O)N[C@H](C(=O)N[C@H](C(=O)O)c4cc(O)cc(O)c4-c4cc3ccc4O)[C@H](O)c3ccc(c(Cl)c3)Oc3cc2cc(c3O[C@@H]2O[C@H](CO)[C@@H](O)[C@H](O)[C@H]2O[C@H]2C[C@](C)(N)[C@H](O)[C@H](C)O2)Oc2ccc(cc2Cl)[C@H]1O` [Vancomycin]: the MIC with E. faecalis ATCC29212 (ATCC29212, read-out: Minimum inhibitory concentration) was 2 mg/L; with E. faecium A2373 (A2373, read-out: Minimum inhibitory concentration) it was more than 64 mg/L; in the test on S. pneumoniae ATCC49619 (ATCC49619, read-out: Minimum inhibitory concentration), 0.125 mg/L; with P. aeruginosa PAO1 (PAO1, read-out: Minimum inhibitory concentration), more than 64 mg/L. The Minimum inhibitory concentration in the test with E. faecalis ATCC29212 (in the presence of 0.1 mM AOAA) is 1 mg/L; in the test on E. faecalis ATCC29212 (setting [3]) it was 2 mg/L; with E. faecalis ATCC29212 (in the presence of 1 mM PAG), 2 mg/L; with E. faecium A2373 (in the presence of 0.1 mM AOAA), 2 mg/L; in the test on E. faecium A2373 (setting [3]) it was more than 64 mg/L; with E. faecium A2373 (in the presence of 1 mM PAG), more than 64 mg/L. The Minimum inhibitory concentration in the test with S. pneumoniae ATCC49619 (in the presence of 0.1 mM AOAA) is 0.125 mg/L; in the test on S. pneumoniae ATCC49619 (setting [3]), 0.125 mg/L; with S. pneumoniae ATCC49619 (in the presence of 1 mM PAG) it was 0.125 mg/L; with P. aeruginosa PAO1 (in the presence of 0.1 mM AOAA), more than 64 mg/L; in the test on P. aeruginosa PAO1 (setting [3]), more than 64 mg/L; in the test with P. aeruginosa PAO1 (in the presence of 1 mM PAG), more than 64 mg/L. In addition, in test [1], the “ΔsseA inhibition of growth” value is given as −198.
For the molecule `CN(C)C(=O)/N=N/C(=O)N(C)C` [diamide], the “Protection against Gm” value in [2] is given as “protected 3MST mutant cells against Gm”.
As to gentamicin, the Minimum inhibitory concentration with E. faecalis ATCC29212 (antibiotic alone) was 32 mg/L; in the test on E. faecalis ATCC29212 (in the presence of 0.1 mM AOAA), 1 mg/L; in the test with E. faecalis ATCC29212 (setting [3]), 4 mg/L; in the test on E. faecalis ATCC29212 (in the presence of 1 mM PAG), 32 mg/L; with E. faecium A2373 (antibiotic alone), more than 64 mg/L; with E. faecium A2373 (in the presence of 0.1 mM AOAA), more than 64 mg/L. The Minimum inhibitory concentration in the test with E. faecium A2373 (setting [3]) is more than 64 mg/L; in the test on E. faecium A2373 (in the presence of 1 mM PAG), more than 64 mg/L; with S. pneumoniae ATCC49619 (antibiotic alone), 32 mg/L; with S. pneumoniae ATCC49619 (in the presence of 0.1 mM AOAA), 8 mg/L; in the test with S. pneumoniae ATCC49619 (setting [3]), 16 mg/L; in the test on S. pneumoniae ATCC49619 (in the presence of 1 mM PAG) it was 32 mg/L. In addition, the Minimum inhibitory concentration in the test on P. aeruginosa PAO1 (antibiotic alone) turned out to be 2 mg/L; with P. aeruginosa PAO1 (in the presence of 0.1 mM AOAA) it was 2 mg/L; in the test with P. aeruginosa PAO1 (setting [3]), 4 mg/L; in the test on P. aeruginosa PAO1 (in the presence of 1 mM PAG) it was 2 mg/L.

Source of the values: patent publication US20140066362A1, “METHOD FOR TREATING INFECTIONS BY TARGETING MICROBIAL H2S-PRODUCING ENZYMES” (NEW YORK UNIVERSITY, priority 2011, published 2014).
